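Method: 48-hour compound exposure of cells in 96-well plates, five concentrations, linear interpolation of endpoints. Abbreviation: GI50, concentration required for 50% inhibition of growth.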 The source made the active and inactive calls. Cut-off read from the data, not from the text of the source: active = GI50 up to about 1.1 µM and inactive = higher. Non-standard residues stand in square brackets, D forms with d. Residues, ends and D or L forms follow the SMILES beside them.

The text below walks through data of ChEMBL document CHEMBL1201862, “PubChem BioAssay data set” (2004).

Some test systems named below: A549; CAKI-1; CCRF-CEM; COLO 205; EKVX; HCT-116; HL-60; IGROV-1; M14; NCI-H460; OVCAR-4; OVCAR-5; SK-MEL-28; SK-MEL-5; SK-OV-3; SNB-19; SR; U-251; UACC-62; NCI-H226.
Holding throughout (experiment): NCI tumour cell line growth inhibition, 48 h

As for `Cc1ccc(S(=O)(=O)c2c(N)c3nccn3c3nc4ccccc4nc23)cc1`, the GI50 in the test on A549, with CAKI-1, in the test on CCRF-CEM, in the test on COLO 205, in the test on EKVX and in the test with HCT-116 was > 100 µM (inactive) each time. Also, the GI50 was > 100 µM (inactive) in the test on HL-60; 13.5 µM (inactive) in the test on IGROV-1; > 100 µM (inactive) with M14; > 100 µM (inactive) in the test with NCI-H460; > 100 µM (inactive) with OVCAR-4; > 100 µM (inactive) in the test with OVCAR-5. Moreover, the GI50 in the test on SK-MEL-28, with SK-MEL-5, with SK-OV-3, in the test on SNB-19, in the test on SR and with U-251 was > 100 µM (inactive) throughout. Moreover, the GI50 in the test with UACC-62 is 20.4 µM (inactive).
For `CCOC(=O)C1Nc2ccccc2[C@H]2OCC[C@@H]12` (some centres undefined), the GI50 with A549, with CAKI-1, in the test on CCRF-CEM, in the test on COLO 205, in the test with EKVX and with HCT-116 was > 100 µM (inactive) each time. In addition, the GI50 with HL-60, in the test with IGROV-1, in the test on M14, in the test with NCI-H226, in the test with NCI-H460 and in the test with OVCAR-4 was > 100 µM (inactive) throughout. The GI50 in the test on OVCAR-5, with SK-MEL-28, with SK-MEL-5, with SK-OV-3, in the test on SNB-19 and with U-251 was > 100 µM (inactive) in each case. In the test with UACC-62, the GI50 is > 100 µM (inactive).
As to `Nc1cc(OCC2CCCCC2)nc(N)n1`, the GI50 was 93.8 µM (inactive) in the test on A549; > 100 µM (inactive) in the test with CAKI-1; > 100 µM (inactive) in the test with CCRF-CEM; 87.3 µM (inactive) in the test on COLO 205; 57.1 µM (inactive) with EKVX; > 100 µM (inactive) with HCT-116. For the same compound, the GI50 in the test on HL-60 is > 100 µM (inactive); in the test with IGROV-1, 67.9 µM (inactive); in the test with M14, > 100 µM (inactive); in the test with NCI-H226, > 100 µM (inactive); in the test with NCI-H460, > 100 µM (inactive); in the test on OVCAR-4, > 100 µM (inactive). Further, the GI50 in the test on OVCAR-5 was > 100 µM (inactive); with SK-MEL-28, > 100 µM (inactive); in the test with SK-MEL-5, 37.5 µM (inactive); with SK-OV-3, > 100 µM (inactive); in the test on SNB-19, > 100 µM (inactive); in the test on U-251, > 100 µM (inactive). In addition, the GI50 in the test on UACC-62 is > 100 µM (inactive).
Consider `COC(=O)C1=C(O)C(O)=C(C(=O)OC)C1`, for which the GI50 in the test with A549, in the test with CAKI-1, in the test with CCRF-CEM, in the test on COLO 205, with EKVX and with HCT-116 was > 100 µM (inactive) in each case. The GI50 in the test with HL-60, in the test on IGROV-1, in the test with M14, in the test with NCI-H226, in the test on NCI-H460 and in the test on OVCAR-4 was > 100 µM (inactive) throughout. In addition, the GI50 in the test on OVCAR-5, with SK-MEL-28, in the test on SK-MEL-5, in the test on SK-OV-3, in the test with SNB-19 and in the test with U-251 was > 100 µM (inactive) throughout. Moreover, in the test on UACC-62, the GI50 is 0.612 µM (active).
As for `COc1ccccc1NC(=O)c1nc2ccc([N+](=O)[O-])cc2nc1C`, the GI50 with A549, in the test on CAKI-1, in the test on CCRF-CEM, with COLO 205, in the test on EKVX and in the test on HCT-116 was > 100 µM (inactive) in each case. Also, the GI50 is > 100 µM (inactive) with IGROV-1; > 100 µM (inactive) in the test on M14; 99.3 µM (inactive) in the test on NCI-H226; > 100 µM (inactive) in the test with NCI-H460; > 100 µM (inactive) in the test on OVCAR-4; > 100 µM (inactive) in the test on OVCAR-5. For the same compound, the GI50 with SK-MEL-28, with SK-MEL-5, with SK-OV-3, with SNB-19, in the test with U-251 and in the test on UACC-62 was > 100 µM (inactive) throughout.
Regarding `CSCC[C@H](NC(=O)[C@@H](N)CC(N)=O)C(=O)N[C@@H](Cc1c[nH]c2ccccc12)C(=O)N[C@@H](CCC(N)=O)C(=O)N[C@@H](CCC(=O)O)C(=O)N[C@H](C(=O)NCC(=O)N[C@@H](CCCCN)C(=O)N[C@H](C)C(=O)O)C(C)C` (H-NMWQEVGK[dA]-OH), the GI50 in the test on A549, in the test with CAKI-1, in the test on CCRF-CEM, in the test with COLO 205, in the test on EKVX and with HCT-116 was > 100 µM (inactive) in each case. Besides, the GI50 in the test on HL-60, in the test on IGROV-1, in the test on M14, with NCI-H226, in the test with NCI-H460 and with OVCAR-4 was > 100 µM (inactive) throughout. The GI50 in the test with OVCAR-5, in the test with SK-MEL-28, with SK-MEL-5, in the test with SK-OV-3, in the test on SNB-19 and in the test on U-251 was > 100 µM (inactive) each time. Besides, the GI50 in the test with UACC-62 is > 100 µM (inactive).
As to `Cn1c(N)c(/C=C/C(=O)Oc2ccccc2)c(=O)n(C)c1=O`, the GI50 with A549 is > 100 µM (inactive); in the test with CAKI-1, 29 µM (inactive); in the test on CCRF-CEM, > 100 µM (inactive); with COLO 205, > 100 µM (inactive); in the test on EKVX it was > 100 µM (inactive); with HCT-116 it was > 100 µM (inactive). Also, the GI50 with HL-60 is > 100 µM (inactive); in the test on IGROV-1 it was 67.9 µM (inactive); in the test on M14 it was > 100 µM (inactive); in the test on NCI-H226, 47.4 µM (inactive); with NCI-H460 it was > 100 µM (inactive); in the test with OVCAR-4, > 100 µM (inactive). Further, the GI50 was > 100 µM (inactive) in the test with OVCAR-5; > 100 µM (inactive) in the test on SK-MEL-28; > 100 µM (inactive) in the test with SK-MEL-5; 56.5 µM (inactive) in the test on SK-OV-3; 59.3 µM (inactive) in the test on SNB-19; 52.8 µM (inactive) in the test on U-251. Further, in the test with UACC-62, the GI50 was > 100 µM (inactive).
Regarding `CCCCCCCCCCC/C(=N/O)c1ccc(O)c2ncccc12`, the GI50 with A549 was 5.69 µM (inactive); in the test on CAKI-1, 3.16 µM (inactive); in the test on COLO 205 it was 45.9 µM (inactive); in the test on EKVX, 3.52 µM (inactive); in the test with HCT-116, 6.64 µM (inactive); in the test with HL-60 it was 0.19 µM (active). The GI50 in the test with M14 is 1.76 µM (inactive); in the test with NCI-H226, 3.22 µM (inactive); in the test with NCI-H460, 3.65 µM (inactive); in the test on OVCAR-4, 2.61 µM (inactive); with OVCAR-5, 3.15 µM (inactive); with SK-MEL-28 it was 9.25 µM (inactive). The values for the GI50 in the test on SK-MEL-5, with SNB-19 and in the test on U-251 were 1.85 µM (inactive), 5.74 µM (inactive) and 4.48 µM (inactive), respectively.
Turning to `O=C(O)CCSCCCN1C(=O)c2ccccc2C1=O`, the GI50 with A549, in the test with COLO 205, with EKVX, in the test with HCT-116, with IGROV-1 and with NCI-H226 was > 100 µM (inactive) throughout. The GI50 with OVCAR-4, with OVCAR-5, in the test on SK-MEL-28, with SK-MEL-5, with SK-OV-3 and in the test with SNB-19 was > 100 µM (inactive) each time. Besides, the GI50 in the test with SR, in the test with U-251 and in the test with UACC-62 was > 100 µM (inactive) throughout.
As to `C/C(=N\NC(=S)N1CCN(C)CC1)c1nc2cccnc2[nH]1`, the GI50 in the test with A549, in the test with CAKI-1, in the test on CCRF-CEM, in the test on COLO 205, in the test on EKVX and in the test with HL-60 was > 100 µM (inactive) in each case. Besides, the GI50 in the test on IGROV-1, with M14, in the test with NCI-H226, in the test on NCI-H460, in the test with OVCAR-4 and with OVCAR-5 was > 100 µM (inactive) throughout. The GI50 in the test on SK-MEL-28, with SK-MEL-5, in the test with SK-OV-3, in the test with SNB-19, in the test on U-251 and with UACC-62 was > 100 µM (inactive) in each case.
As to `O=C(O)CNn1c(SCC(=O)O)nnc(/C=C/c2c(O)ccc3ccccc23)c1=O`, the GI50 in the test with A549 is 44.2 µM (inactive); in the test on CAKI-1, 29.5 µM (inactive); with CCRF-CEM, 3.57 µM (inactive); in the test on COLO 205, 34.4 µM (inactive); in the test on EKVX, 14.3 µM (inactive); in the test on HCT-116, 28.8 µM (inactive). In addition, the GI50 was 9.98 µM (inactive) in the test on HL-60; 0.15 µM (active) with IGROV-1; 17.1 µM (inactive) with M14; 4.91 µM (inactive) in the test on NCI-H460; 14.1 µM (inactive) with OVCAR-4; 28.5 µM (inactive) in the test with OVCAR-5. The GI50 was 34.3 µM (inactive) in the test with SK-MEL-28; 18.7 µM (inactive) with SK-MEL-5; 5.53 µM (inactive) with SK-OV-3; 64.7 µM (inactive) in the test with SNB-19; 32.3 µM (inactive) with SR; 35.3 µM (inactive) with U-251. The GI50 in the test with UACC-62 is 21.3 µM (inactive).
